In ChEMBL document CHEMBL1155248, “Structure-based shape pharmacophore modeling for the discovery of novel anesthetic compounds” (Bioorg Med Chem, 2009):

Legend:
[1] = Binding affinity to apoferritin by isothermal titration calorimetry
[2] = Agonist activity at GABAA assessed as enhancement of channel current; type: functional

Structure (SMILES) | pEC50 [1] | Kd [2]
CCC(C)c1ccc(O)c(C(C)CC)c1 (centres undefined) | 4.5 | 
CCc1cccc(CC)c1Br | 4.7 | 
CC(C)c1ccccc1O | 4.4 | 500 nM
CC(C)c1cc(I)cc(C(C)C)c1O | 5 | 
CC(C)c1cc(O)c(O)c(C(C)C)c1 | 4.4 | 
CCc1cccc(CC)c1N=C=S | 4.8 | 
CC(C)(C)c1cc(O)cc(C(C)(C)C)c1 | 4 | 
CC(C)c1cccc(C(C)C)c1O [PROPOFOL] | 5.7 | 230 nM
CCc1cccc(CC)c1N=C=O | 4.6 | 
Cc1cccc(C(C)(C)C)c1O | 6.3 | 
CCc1cccc(CC)c1O | 4.9 | 310 nM
Cc1cccc(C)c1O | 3.9 | 360 nM
Oc1ccccc1 [PHENOL] | 3 | 3800 nM
CCC(C)c1cccc(C(C)CC)c1O (centres undefined) | 5.6 | 
